Laboratory results published in patent US9695155B2, “Herbicidal substituted pyrimidinyloxy benzene compounds” (E. I. DU PONT DE NEMOURS AND COMPANY, priority 2013, dated 2017).

Assays:
kochia [1] = experiment: Test A postemergence; type: in vivo, Kochia scoparia; settings: 0 to 100 scale, 0 no effect, 100 complete control
Summary of the method: (§1)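 Greenhouse pot test, loam/sand soil. Formulation: non-phytotoxic solvent mix plus surfactant. Pre: directed spray onto soil after sowing. Post: plants at 1–2 leaf, 2–10 cm. Rated visually vs untreated controls at ~10 d, 0 (no effect) to 100 (complete control).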

wheat, winter [2] = experiment: Test C preemergence; type: in vivo, Triticum aestivum; settings: Triticum aestivum, pre-emergence
Summary of the method: (§2)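 Preemergence: seeds sown in a loam soil–sand blend and sprayed with test chemical in a non-phytotoxic solvent mixture containing surfactant. Postemergence: plants at 2 to 18 cm (1- to 4-leaf stage) in peat-based medium, treated with the same formulation. Greenhouse 13 to 15 days, then visual rating 0 (no effect) to 100 (complete control).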

waterhemp = experiment: Test C postemergence; type: in vivo, Amaranthus rudis
Summary of the method: as §2

yellow nutsedge = experiment: Test C postemergence; type: in vivo, Cyperus esculentus
Summary of the method: as §2

galium = experiment: Test C postemergence; type: in vivo, Galium aparine; settings: Galium, post-emergence
Summary of the method: as §2

wild oat = experiment: Test C postemergence; type: in vivo, Avena fatua
Summary of the method: as §2

morningglory = experiment: Test C preemergence; type: in vivo, Ipomoea coccinea; settings: Ipomoea, pre-emergence
Summary of the method: as §2

corn = experiment: Test A postemergence; type: in vivo, Zea mays; settings: Zea mays, post-emergence, 240 h, 0 to 100 scale, 0 no effect, 100 complete control
Summary of the method: as §1

wheat, winter [3] = experiment: Test C postemergence; type: in vivo, Triticum aestivum
Summary of the method: as §2

ragweed [4] = experiment: Test A postemergence; type: in vivo, Ambrosia elatior; settings: 0 to 100 scale, 0 no effect, 100 complete control
Summary of the method: as §1

ragweed [5] = experiment: Test C postemergence; type: in vivo, Ambrosia elatior
Summary of the method: as §2

velvetleaf = experiment: Test C preemergence; type: in vivo, Abutilon theophrasti; settings: Abutilon theophrasti, pre-emergence
Summary of the method: as §2

barnyardgrass [6] = experiment: Test A postemergence; type: in vivo, Echinochloa crus-galli; settings: Echinochloa crus-galli, post-emergence, 240 h, 0 to 100 scale, 0 no effect, 100 complete control, read-out: Plant response rating, Barnyardgrass
Summary of the method: as §1

barnyardgrass [7] = experiment: Test C postemergence; type: in vivo, Echinochloa crus-galli; settings: Echinochloa crus-galli, post-emergence
Summary of the method: as §2

soybean = experiment: Test C preemergence; type: in vivo, Glycine max; settings: Glycine max, pre-emergence
Summary of the method: as §2

kochia [8] = experiment: Test A preemergence; type: in vivo, Kochia scoparia
Summary of the method: as §1

Italian ryegrass = experiment: Test C preemergence; type: in vivo, Lolium multiflorum; settings: Lolium multiflorum, pre-emergence
Summary of the method: as §2

[9] = 31 g ai/ha, postemergence, visual rating, scale 0 to 100 (0 no effect, 100 complete control), 13 to 15 days

`N#Cc1cccc(Oc2ncc(Cl)cn2)c1-n1cc(C(F)F)cn1` [Compound 253, 3-(5-chloropyrimidin-2-yl)oxy-2-[4-(difluoromethyl)-1H-pyrazol-1-yl]benzonitrile] was tested, and the “Plant response rating, Kochia” value (kochia [1]; 31 g ai/ha) was 100, the “Plant response rating, Kochia” value (kochia [1]; 125 g ai/ha) was 100 and the plant injury at 16 g/ha (wheat, winter [2]; 16 g ai/ha, preemergence, scale 0 to 100 (0 no effect, 100 complete control), read-out: Wheat plant response rating) was 0%. For the same compound, the plant injury at 125 g/ha (wheat, winter [2]; 125 g ai/ha, preemergence, scale 0 (no effect) to 100 (complete control), read-out: Wheat plant response rating) was 60%, the plant injury at 62 g/ha (wheat, winter [2]; Preemergence, 62 g ai/ha, scale 0 to 100, 0 no effect, 100 complete control, read-out: Plant response rating, Wheat) was 0% and the “Waterhemp plant response rating” value (waterhemp; [9]) was 75. It also gave a pest or weed control at 16 g/ha (waterhemp; Amaranthus tuberculatus, post-emergence, 16 g ai/ha, postemergence, 0 is no effect, 100 is complete control, read-out: Plant response rating (0 to 100), Waterhemp) of 75%, a pest or weed control at 125 g/ha (waterhemp; Amaranthus tuberculatus, post-emergence, 125 g ai/ha, postemergence, visual rating, scale 0 to 100 (0 no effect, 100 complete control), read-out: Plant response rating, Waterhemp) of 85% and a pest or weed control at 62 g/ha (waterhemp; Amaranthus tuberculatus, post-emergence, Postemergence, 62 g ai/ha, scale 0 to 100 (0 no effect, 100 complete control), 13 to 15 days, read-out: Plant response rating, Waterhemp) of 80%. For the same compound, the “Nutsedge, Yellow plant response rating” value (yellow nutsedge; [9]) was 5, the pest or weed control at 16 g/ha (yellow nutsedge; Cyperus, post-emergence, 16 g ai/ha, postemergence, 0 is no effect, 100 is complete control, read-out: Plant response rating (0 to 100), Nutsedge, Yellow) was 5% and the pest or weed control at 125 g/ha (yellow nutsedge; Cyperus, post-emergence, 125 g ai/ha, postemergence, visual rating, scale 0 to 100 (0 no effect, 100 complete control), read-out: Plant response rating, Nutsedge, Yellow) was 5%. The pest or weed control at 62 g/ha (yellow nutsedge; Cyperus, post-emergence, Postemergence, 62 g ai/ha, scale 0 to 100 (0 no effect, 100 complete control), 13 to 15 days, read-out: Plant response rating, Nutsedge, Yellow) was 5%, the pest or weed control at 16 g/ha (galium; 16 g ai/ha, postemergence, 0 is no effect, 100 is complete control, read-out: Plant response rating (0 to 100), Galium) was 45% and the pest or weed control at 31 g/ha (galium; 31 g ai/ha, postemergence, visual rating, scale 0 to 100 (0 no effect, 100 complete control), 13 to 15 days, read-out: Galium plant response rating) was 80%. The pest or weed control at 125 g/ha (galium; 125 g ai/ha, postemergence, visual rating, scale 0 to 100 (0 no effect, 100 complete control), read-out: Plant response rating, Galium) was 100%, the pest or weed control at 62 g/ha (galium; Postemergence, 62 g ai/ha, scale 0 to 100 (0 no effect, 100 complete control), 13 to 15 days, read-out: Plant response rating, Galium) was 80% and the “Oat, Wild plant response rating” value (wild oat; [9]) was 0. For the same compound, the pest or weed control at 16 g/ha (wild oat; Avena fatua, post-emergence, 16 g ai/ha, postemergence, 0 is no effect, 100 is complete control, read-out: Plant response rating (0 to 100), Oat, Wild) was 0%, the pest or weed control at 125 g/ha (wild oat; Avena fatua, post-emergence, 125 g ai/ha, postemergence, visual rating, scale 0 to 100 (0 no effect, 100 complete control), read-out: Plant response rating, Oat, Wild) was 10% and the pest or weed control at 62 g/ha (wild oat; Avena fatua, post-emergence, Postemergence, 62 g ai/ha, scale 0 to 100 (0 no effect, 100 complete control), 13 to 15 days, read-out: Plant response rating, Oat, Wild) was 10%. It also gave a pest or weed control at 16 g/ha (morningglory; 16 g ai/ha, preemergence, scale 0 to 100 (0 no effect, 100 complete control), read-out: Morningglory plant response rating) of 40%, a pest or weed control at 125 g/ha (morningglory; 125 g ai/ha, preemergence, scale 0 (no effect) to 100 (complete control), read-out: Morningglory plant response rating) of 100% and a pest or weed control at 62 g/ha (morningglory; Preemergence, 62 g ai/ha, scale 0 to 100, 0 no effect, 100 complete control, read-out: Plant response rating, Morningglory) of 98%. For the same compound, the Corn plant response rating (crop injury, 0 = no effect, 100 = complete kill) at 31 g/ha (corn; 31 g ai/ha) was 20%, the Corn plant response rating (crop injury, 0 = no effect, 100 = complete kill) at 125 g/ha (corn; 125 g ai/ha) was 60% and the “Wheat plant response rating” value (wheat, winter [3]; [9]) was 0. The plant injury at 16 g/ha (wheat, winter [3]; Triticum aestivum, post-emergence, 16 g ai/ha, postemergence, 0 is no effect, 100 is complete control, read-out: Plant response rating (0 to 100), Wheat) was 0%, the plant injury at 125 g/ha (wheat, winter [3]; Triticum aestivum, post-emergence, 125 g ai/ha, postemergence, visual rating, scale 0 to 100 (0 no effect, 100 complete control), read-out: Plant response rating, Wheat) was 0% and the plant injury at 62 g/ha (wheat, winter [3]; Triticum aestivum, post-emergence, Postemergence, 62 g ai/ha, scale 0 to 100 (0 no effect, 100 complete control), 13 to 15 days, read-out: Plant response rating, Wheat) was 0%. The “Plant response rating, Ragweed” value (ragweed [4]; 31 g ai/ha) was 20, the “Plant response rating, Ragweed” value (ragweed [4]; 125 g ai/ha) was 80 and the “Ragweed plant response rating” value (ragweed [5]; [9]) was 45. For the same compound, the pest or weed control at 16 g/ha (ragweed [5]; Ambrosia artemisiifolia, post-emergence, 16 g ai/ha, postemergence, 0 is no effect, 100 is complete control, read-out: Plant response rating (0 to 100), Ragweed) was 20%, the pest or weed control at 125 g/ha (ragweed [5]; Ambrosia artemisiifolia, post-emergence, 125 g ai/ha, postemergence, visual rating, scale 0 to 100 (0 no effect, 100 complete control), read-out: Plant response rating, Ragweed) was 80% and the pest or weed control at 62 g/ha (ragweed [5]; Ambrosia artemisiifolia, post-emergence, Postemergence, 62 g ai/ha, scale 0 to 100 (0 no effect, 100 complete control), 13 to 15 days, read-out: Plant response rating, Ragweed) was 55%. The pest or weed control at 16 g/ha (velvetleaf; 16 g ai/ha, preemergence, scale 0 to 100 (0 no effect, 100 complete control), read-out: Velvetleaf plant response rating) was 55%, the pest or weed control at 125 g/ha (velvetleaf; 125 g ai/ha, preemergence, scale 0 (no effect) to 100 (complete control), read-out: Velvetleaf plant response rating) was 100% and the pest or weed control at 62 g/ha (velvetleaf; Preemergence, 62 g ai/ha, scale 0 to 100, 0 no effect, 100 complete control, read-out: Plant response rating, Velvetleaf) was 100%. It also gave a pest or weed control at 31 g/ha (barnyardgrass [6]; 31 g ai/ha) of 20%, a pest or weed control at 125 g/ha (barnyardgrass [6]; 125 g ai/ha) of 100% and a pest or weed control at 16 g/ha (barnyardgrass [7]; 16 g ai/ha, postemergence, 0 is no effect, 100 is complete control, read-out: Plant response rating (0 to 100), Barnyardgrass) of 5%. It also gave a pest or weed control at 31 g/ha (barnyardgrass [7]; 31 g ai/ha, postemergence, visual rating, scale 0 to 100 (0 no effect, 100 complete control), 13 to 15 days, read-out: Barnyardgrass plant response rating) of 5%, a pest or weed control at 125 g/ha (barnyardgrass [7]; 125 g ai/ha, postemergence, visual rating, scale 0 to 100 (0 no effect, 100 complete control), read-out: Plant response rating, Barnyardgrass) of 20% and a pest or weed control at 62 g/ha (barnyardgrass [7]; Postemergence, 62 g ai/ha, scale 0 to 100 (0 no effect, 100 complete control), read-out: Plant response rating, Barnyardgrass) of 10%. The plant injury at 16 g/ha (soybean; 16 g ai/ha, preemergence, scale 0 to 100 (0 no effect, 100 complete control), read-out: Soybean plant response rating) was 40%, the plant injury at 125 g/ha (soybean; 125 g ai/ha, preemergence, scale 0 (no effect) to 100 (complete control), read-out: Soybean plant response rating) was 98% and the plant injury at 62 g/ha (soybean; Preemergence, 62 g ai/ha, scale 0 to 100, 0 no effect, 100 complete control, read-out: Plant response rating, Soybean) was 95%. For the same compound, the “Plant response rating, Kochia” value (kochia [8]; 31 g ai/ha, 0 to 100 scale where 0 is no effect and 100 is complete control, visual, approximately 10 days) was 90, the “Kochia plant response rating (0 to 100 scale)” value (kochia [8]; 125 g ai/ha) was 100 and the pest or weed control at 16 g/ha (Italian ryegrass; 16 g ai/ha, preemergence, scale 0 to 100 (0 no effect, 100 complete control), read-out: Ryegrass, Italian plant response rating) was 0%. For the same compound, the pest or weed control at 125 g/ha (Italian ryegrass; 125 g ai/ha, preemergence, scale 0 (no effect) to 100 (complete control), read-out: Ryegrass, Italian plant response rating) was 80% and the pest or weed control at 62 g/ha (Italian ryegrass; Preemergence, 62 g ai/ha, scale 0 to 100, 0 no effect, 100 complete control, read-out: Plant response rating, Ryegrass, Italian) was 35%.
